The test system of this assay is Acinetobacter baumannii ATCC17978. The assay is described as follows: Antimicrobial susceptibility testing: 90% growth inhibitory concentration (IC90) determination, Iso-Sensitest broth. The assay is classed as cell-based. In a few lines: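 A. baumannii ATCC17978 grown in Iso-Sensitest broth across 10 compound concentrations at 35±2 °C.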
[1] abbreviates: 90% growth inhibitory concentration, Acinetobacter baumannii ATCC17978, Iso-Sensitest broth, OD 600 nm over 16 h, read-out: ATCC17978 IC90.
Where [2] appears, read: Acinetobacter baumannii, ATCC17978, 16 h, read-out: ATCC17978 IC90, 90% growth inhibitory concentration, Acinetobacter baumannii ATCC17978, Iso-Sensitest broth, OD 600 nm over 16 h.

Molecules are shown by their SMILES. Counter-ions that a name gives are not always drawn. Like-named read-outs stand apart in the source and are kept apart here.

In the case of `Cc1cc(Nc2nccn3c(-c4ccc(OCC#N)c(F)c4F)cnc23)ccc1C(=O)N1CCN(C(=O)[C@@H]2CCNC[C@H]2O)CC1` (racemic) [Example 472, 2-[2,3-difluoro-4-[8-[3-methyl-4-[4-[rac-(3R,4S)-3-hydroxypiperidine-4-carbonyl]piperazine-1-carbonyl]anilino]imidazo[1,2-a]pyrazin-3-yl]phenoxy]acetonitrile; for-mic acid], the IC90 under setting [1] came out at 230 nM. The same measure, in the same setting: the figure for `Cc1cc(Nc2nccn3c(-c4ccc(OCC5CC5C#N)c(F)c4F)cnc23)ccc1C(=O)N1CCC(CN)CC1` (stereo not shown) [Example 114, 2-[[4-[8-[4-[4-(aminomethyl)piperidine-1-carbonyl]-3-methyl-anilino]imidazo[1,2-a]pyrazin-3-yl]-2,3-difluoro-phenoxy]methyl]cyclopropanecarbonitrile formate] is 410 nM. As to `Cc1cc(Nc2nccn3c(-c4ccc(OC(F)F)cc4)cnc23)ccc1C(=O)N1CCN(C(=O)[C@H]2CCN2)CC1` [Example 521, [4-[(2R)-azetidine-2-carbonyl]piperazin-1-yl]-[4-[[3-[4-(difluoromethoxy)phenyl]imi-dazo[1,2-a]pyrazin-8-yl]amino]-2-methylphenyl]methanone; hy-drochloride], the IC90 under setting [2] was determined as 370 nM.

For the compound `COc1ccc(-c2cnc3c(Nc4ccc(C(=O)N5CCNC6(CC6)C5)c(C)c4)nccn23)cc1F` [Example 416, 4,7-diazaspiro[2.5]octan-7-yl-[4-[[3-(3-fluoro-4-methoxyphenyl)imidazo[1,2-a]pyrazin-8-yl]amino]-2-methylphenyl]methanone; 2,2,2-trifluoroacetic acid], the IC90 under setting [2] was 800 nM. `COc1ccc(-c2cnc3c(Nc4ccc(C(=O)N5CCN(CCN(C)C)CC5)c(C)c4)nccn23)cc1F` [Example 35, (4-(2-(dimethylamino)ethyl)piperazin-1-yl)(4-((3-(3-fluoro-4-methoxyphenyl)imidazo[1,2-a]pyrazin-8-yl)amino)-2-methylphenyl)methanone]: under setting [1], the IC90 is 250 nM. For `Cc1cc(Nc2nccn3c(-c4ccc(OC(F)F)cc4)cnc23)ccc1C(=O)N1CCN(C(=O)N[C@H]2CCNC2)CC1` [Example 138, 4-[4-[[3-[4-(difluoromethoxy)phenyl]imidazo[1,2-a]pyrazin-8-yl]amino]-2-methyl-benzoyl]-N-[(3S)-pyrrolidin-3-yl]piperazine-1-carboxamide hydrochloride], under setting [1], the IC90 is 110 nM. On to `Cc1cc(Nc2nccn3c(-c4ccc(OC(F)F)cc4)cnc23)ccc1C(=O)N1CCN(C(=O)c2cccc(C(=O)O)c2)CC1` [Example 277, 3-[4-[4-[[3-[4-(difluoromethoxy)phenyl]imi-dazo[1,2-a]pyrazin-8-yl]amino]-2-methylbenzoyl]piperazine-1-carbonyl]benzoic acid], for which the IC90 under setting [2] came to 3800 nM. Consider `Cc1cc(Nc2nccn3c(-c4ccc(OC(F)F)cc4)cnc23)ccc1C(=O)N1CCC(C(=O)N2CCNC(C)(C)C2)CC1` [Example 323, [4-[[3-[4-(difluoromethoxy)phenyl]imi-dazo[1,2-a]pyrazin-8-yl]amino]-2-methylphenyl]-[4-(3,3-dimethylpiperazin-1-carbonyl)piperidin-1-yl]methanone; hydrochloride], for which, under setting [2], the IC90 turned out to be 300 nM. As to `Cc1cc(Nc2nccn3c(-c4ccc(OCC#CCN)c(F)c4)cnc23)ccc1C(=O)N1CCC(CN)CC1` [Example 247, [4-[[3-[4-(4-aminobut-2-ynoxy)-3-fluoro-phenyl]imidazo[1,2-a]pyrazin-8-yl]amino]-2-methyl-phenyl]-[4-(aminomethyl)-1-piperidyl]methanone; formic acid], the IC90 under setting [2] came to 870 nM.

Take `Cc1cc(Nc2nccn3c(-c4ccc(OC(F)F)cc4)cnc23)ccc1C(=O)N1CCC(C(=O)O)CC1` [Example 1, 1-(4-((3-(4-(difluoromethoxy)phenyl)imidazo[1,2-a]pyrazin-8-yl)amino)-2-methylbenzoyl)piperidine-4-carboxylic acid]: the IC90 under setting [1] was 1700 nM.

`Cc1cc(Nc2nccn3c(-c4ccc(OC(F)F)cc4)cnc23)ccc1C(=O)N1CCN(C(=O)[C@@H](N)CCC(=O)O)CC1` [Example 272, (4S)-4-amino-5-[4-[4-[[3-[4-(difluoromethoxy)phenyl]imi-dazo[1,2-a]pyrazin-8-yl]amino]-2-methylbenzoyl]piperazin-1-yl]-5-oxopentanoic acid; hydrochloride]: the IC90 under setting [2] is 2200 nM.

Regarding `COc1ccc(-c2cnc3c(Nc4ccc(C(=O)N5CCN(C6CC6)CC5)c(C)c4)nccn23)cc1F` [Example 426, (4-cyclopropylpiperazin-1-yl)-[4-[[3-(3-fluoro-4-methoxyphenyl)imidazo[1,2-a]pyrazin-8-yl]amino]-2-methylphenyl]methanone], the IC90 under setting [1] amounted to 1200 nM. With `Cc1cc(Nc2nccn3c(-c4ccc(OCC#N)c(F)c4F)cnc23)ccc1C(=O)N1CCC(CNC(=O)CO)CC1` [Example 91, N-[[1-[4-[[3-[4-(cyanomethoxy)-2,3-difluoro-phenyl]imidazo[1,2-a]pyrazin-8-yl]amino]-2-methyl-benzoyl]-4-piperidyl]methyl]-2-hydroxy-acetamide], under setting [1], the IC90 was 500 nM. On the same count and under the same terms, the value for `Cc1cc(Nc2nccn3c(-c4ccc(OC(F)F)cc4)cnc23)ccc1C(=O)N1CCC(Cn2cccn2)CC1` [Example 16, (4-((1H-pyrazol-1-yl)methyl)piperidin-1-yl)(4-((3-(4-(difluoromethoxy)phenyl)imidazo[1,2-a]pyrazin-8-yl)amino)-2-methylphenyl)methanone] was 930 nM. In the case of `CCC(N)C(=O)N1CCN(C(=O)c2ccc(Nc3nccn4c(-c5ccc(OC(F)F)cc5)cnc34)cc2C)CC1` (stereo not shown) [Example 344, 2-amino-1-[4-[4-[[3-[4-(difluoromethoxy)phenyl]imi-dazo[1,2-a]pyrazin-8-yl]amino]-2-methylbenzoyl]piperazin-1-yl]butan-1-one; hydrochloride], the IC90 under setting [2] is 560 nM. Regarding `Cc1cc(Nc2nccn3c(-c4ccc(OC(F)F)cc4)cnc23)ccc1C(=O)N1CCN(C(=O)N2CCOC(CN)C2)CC1` (stereo not shown) [Example 134, [4-[2-(aminomethyl)morpholine-4-carbonyl]piperazin-1-yl]-[4-[[3-[4-(difluoromethoxy)phenyl]imidazo[1,2-a]pyrazin-8-yl]amino]-2-methyl-phenyl]methanone hydrochloride], under setting [1], the IC90 was found to be 260 nM. On the same count and under the same terms, the figure for `CNCC(=O)N1CCN(C(=O)c2ccc(Nc3nccn4c(-c5ccc(OC)c(F)c5)cnc34)cc2C)CC1` [Example 224, 1-(4-(4-((3-(3-fluoro-4-methoxyphenyl)imidazo[1,2-a]pyrazin-8-yl)amino)-2-methylbenzoyl)piperazin-1-yl)-2-(methylamino) ethanone hydrochloride] is 180 nM. Turning to `Cc1cc(Nc2nccn3c(-c4ccc(OC(F)F)cc4)cnc23)ccc1C(=O)N1CCC(N(C)CCN(C)C)CC1` [Example 301, [4-[[3-[4-(difluoromethoxy)phenyl]imi-dazo[1,2-a]pyrazin-8-yl]amino]-2-methylphenyl]-[4-[2-(dimethylamino)ethyl-methylamino]piperidin-1-yl]methanone], the IC90 under setting [2] was 720 nM.

`Cc1cc(Nc2nccn3c(-c4ccc(OC(F)F)cc4)cnc23)ccc1C(=O)N1CCN(C(=O)c2cccc(S(=O)(=O)O)c2)CC1` [Example 276, 3-[4-[4-[[3-[4-(difluoromethoxy)phenyl]imi-dazo[1,2-a]pyrazin-8-yl]amino]-2-methylbenzoyl]piperazine-1-carbonyl]benzenesulfonic acid]: the IC90 under setting [2] stood at 3300 nM. Regarding `Cc1cc(Nc2nccn3c(-c4ccc(OC(F)F)cc4)cnc23)ccc1C(=O)N1CCN(C(=O)C(C)(C)N)CC1` [Example 339, 2-amino-1-[4-[4-[[3-[4-(difluoromethoxy)phenyl]imi-dazo[1,2-a]pyrazin-8-yl]amino]-2-methylbenzoyl]piperazin-1-yl]-2-methylpropan-1-one; hydrochloride], the IC90 under setting [2] was determined as 500 nM. As for `Cc1cc(Nc2nccn3c(-c4ccc(OC(F)F)cc4)cnc23)ccc1C(=O)N1CCN(C(=O)[C@H]2CC[C@H](C(=O)O)CC2)CC1` [Example 265, 4-[4-[4-[[3-[4-(difluoromethoxy)phenyl]imi-dazo[1,2-a]pyrazin-8-yl]amino]-2-methylbenzoyl]piperazine-1-carbonyl]cyclohexane-1-carboxylic acid], under setting [2], the IC90 stood at 1100 nM. As to `Cc1cc(Nc2nccn3c(-c4ccc(OCC#N)c(F)c4F)cnc23)ccc1C(=O)N1CCC(C(=O)N2CCN[C@H](CO)C2)CC1` [Example 542, 2-[2,3-difluoro-4-[8-[4-[4-[(3S)-3-(hydroxymethyl)piperazine-1-carbonyl]piperidine-1-carbonyl]-3-methylanilino]imidazo[1,2-a]pyrazin-3-yl]phenoxy]acetonitrile; for-mic acid], the IC90 under setting [1] was found to be 98 nM. For `CNCC(=O)N1CCN(C(=O)c2ccc(Nc3nccn4c(-c5ccc(OC(F)F)cc5)cnc34)cc2C)CC1` [Example 331, 1-[4-[4-[[3-[4-(difluoromethoxy)phenyl]imi-dazo[1,2-a]pyrazin-8-yl]amino]-2-methylbenzoyl]piperazin-1-yl]-2-(methylamino)ethanone], the IC90 (read-out: ATCC17978 IC90, 90% growth inhibitory concentration, Acinetobacter baumannii ATCC17978, Iso-Sensitest broth, OD 600 nm over 16 h) is 410 nM. `Cc1cc(Nc2nccn3c(-c4ccc(OC(F)F)cc4)cnc23)ccc1C(=O)N1CCN(C(=O)NC[C@@H](C)N)CC1` [Example 150, N-[(2R)-2-aminopropyl]-4-[4-[[3-[4-(difluoromethoxy)phenyl]imidazo[1,2-a]pyrazin-8-yl]amino]-2-methyl-benzoyl]piperazine-1-carboxamide hydrochloride]: the IC90 under setting [1] was found to be 140 nM. `COc1ccc(-c2cnc3c(Nc4ccc(C(=O)N5CCN(C(=O)N6CCO[C@H](CN)C6)CC5)c(C)c4)nccn23)c(Cl)c1F` [Example 167, [4-[(2R)-2-(aminomethyl)morpholine-4-carbonyl]piperazin-1-yl]-[4-[[3-(2-chloro-3-fluoro-4-methoxy-phenyl)imidazo[1,2-a]pyrazin-8-yl]amino]-2-methyl-phenyl]methanone formate]: the IC90 under setting [1] was 220 nM.

The record behind these values is US20230011869A1 (Hoffmann-La Roche Inc., priority 2018, published 2023).
